For 19 molecules, EC50 and melting point results are on record in patent US9889122B2, “Positive allosteric modulators of nicotinic acetylcholine receptor” (H. Lundbeck A/S, priority 2011, dated 2018).

Data set [1] addresses T1, human α7 receptor (Homo sapiens, UniProt P36544).
T1 construct: host or cells: rat GH4C1 cell line
As to the kind of experiment: α7 NNR flux assay (FDSS Ca assay, Calcium-4 dye, positive allosteric modulation of acetylcholine response). The following applies: human α7 receptor stably expressed in rat GH4C1 cell line; acetylcholine 20 μM (~EC100); % modulation relative to reference PNU-120596 set to 100%. It is filed as cell-based. As to the method:
The nicotinic acetylcholine receptor α7 is a calcium-permeable ion channel, whose activity can be measured by over expression in mammalian cells or oocytes in this version of the assay, the human α7 receptor is stably expressed in the rat GH4C1 cell line. The assay was used to identify positive allosteric modulators (PAMs) of the α7 receptor. Activation of the channel was measured by loading cells with the calcium-sensitive fluorescent dye Calcium-4 (Assay kit from Molecular Devices), and then measuring real-time changes in fluorescence upon treatment with test compounds.
The cell line ChanClone GH4C1-nAChRalpha7 from Genionics was seeded from frozen stock in 384-well plates in culture media 2-3 days before experiment to form an approximately 80% confluent layer on the day of experiment.
Two or three days before the experiment the cells were seeded in 384 well plates from Greiner bio-one (781946, CELLCOAT, Poly-D-Lysine, black, μClear).
The cells were seeded in 384 well plates with 30 μL/well (30000 cells/well) while stirring the cell suspension or otherwise preventing the cells from precipitating.
The loading buffer was 5% v/v Calcium-4 Kit and 2.5 mM Probenecid in assay buffer.
Culture media were removed from the cell plates and 20 μL loading buffer was added in each well. The cell plates were placed in trays and incubated 90 minutes in the incubator (37° C.). Thereafter the plates were incubated 30 minutes at room temperature, still protected from light.
The assay buffer was HBSS with 20 mM HEPES, pH 7.4 and 3 mM CaCl2.
200 nL 10 mM compound solution in DMSO was diluted in 50 μL assay buffer. The final test concentrations in the cell plates were 20-10-5-2.5-1:25-0.625-0.312-0.156-0.078-0.039 μM. Assay buffer and 3 μM PNU-120596 were used for control.
The agonist acetylcholine was added to a final concentration of 20 μM (˜EC100).
In the FDSS7000 the Ex480-Em540 was measured with 1 second intervals. The baseline was made of 5 frames before addition of test compounds, and 95 frames more were made before addition of acetylcholine. The measurement stopped 30 frames after the 2nd addition. Raw data for each well were collected as “the maximum fluorescence count” in the interval 100-131 seconds and as “the average fluorescence count” in the interval 96-100 seconds. The positive allosteric modulation in the 2nd addition was the enhancement of agonist response with test compound compared to agonist alone.
Results were calculated as % modulation of test compound compared to the reference PNU-120596 set to 100%.

Molecules are shown by their SMILES.

T1 sequence (P36544 23-502): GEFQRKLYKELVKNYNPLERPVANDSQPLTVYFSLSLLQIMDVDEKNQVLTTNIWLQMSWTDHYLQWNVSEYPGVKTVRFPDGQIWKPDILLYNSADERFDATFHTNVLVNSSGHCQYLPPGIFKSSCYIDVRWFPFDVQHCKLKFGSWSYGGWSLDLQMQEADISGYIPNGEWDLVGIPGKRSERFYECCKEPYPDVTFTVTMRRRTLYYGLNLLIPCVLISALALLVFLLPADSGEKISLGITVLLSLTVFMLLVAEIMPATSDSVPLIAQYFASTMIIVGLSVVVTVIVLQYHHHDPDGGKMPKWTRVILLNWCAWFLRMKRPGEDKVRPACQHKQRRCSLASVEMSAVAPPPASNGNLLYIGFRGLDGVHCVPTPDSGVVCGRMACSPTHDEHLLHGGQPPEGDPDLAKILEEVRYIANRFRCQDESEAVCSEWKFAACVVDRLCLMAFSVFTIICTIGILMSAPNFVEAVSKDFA

`C[C@H](NC(=O)[C@H]1C[C@@H]1c1ccccc1)c1ccc(OC2COC2)nc1` [Compound 19, (1S,2S)-2-Phenyl-cyclopropanecarboxylic acid {(S)-1-[6-(oxetan-3-yloxy)-pyridin-3-yl]-ethyl}-amide] displayed a melting point of 151 to 153 °C. For the same molecule, the EC50 in data set [1] is 2400 nM.
On the same counts, the results for `C[C@H](NC(=O)[C@H]1C[C@@H]1c1ccccc1)c1ccc(OCC#N)nc1` [Compound 20, (1S,2S)-2-Phenyl-cyclopropane carboxylic acid [(S)-1-(6-cyanomethoxy-pyridin-3-yl)-ethyl]-amide] are 163 to 165 °C and 2000 nM.
For `CCOc1ccc([C@H](CO)NC(=O)[C@H]2C[C@@H]2c2ccccc2)cn1` [Compound 33, (1S,2S)-2-Phenyl-cyclopropanecarboxylic acid [(R)-1-(6-ethoxy-pyridin-3-yl)-2-hydroxy-ethyl]-amide], the EC50 in data set [1] was 1000 nM.
Still for that read-out and setting: in the case of `[2H]C([2H])([2H])C([2H])([2H])Oc1ccc([C@H](CO)NC(=O)[C@H]2C[C@@H]2c2ccc(F)cc2)cn1` [Compound 34, (1S,2S)-2-(4-Fluoro-phenyl)-cyclopropanecarboxylic acid [(R)-1-(6-(1,1,2,2,2-d5)-ethoxy-pyridin-3-yl)-2-hydroxy-ethyl]-amide] it was 700 nM.
Consider `[2H]C([2H])([2H])COc1ccc([C@H](CO)NC(=O)[C@H]2C[C@@H]2c2ccc(F)cc2)cn1` [Compound 35, (1S,2S)-2-(4-Fluoro-phenyl)-cyclopropanecarboxylic acid [(R)-1-(6-(2,2,2-d3)-ethoxy-pyridin-3-yl)-2-hydroxy-ethyl]-amide], for which the concentration for a half-maximal effect (EC50) in data set [1] was determined as 710 nM.
Still for that read-out and setting: in the case of `[2H]C([2H])(C)Oc1ccc([C@H](CO)NC(=O)[C@H]2C[C@@H]2c2ccccc2)cn1` [Compound 36, (1S,2S)-2-Phenyl-cyclopropanecarboxylic acid [(R)-1-(6-(1,1-d2)-ethoxy-pyridin-3-yl)-2-hydroxy-ethyl]-amide] it was 1600 nM; in that of `[2H]C([2H])(C)Oc1ccc([C@H](CO)NC(=O)[C@H]2C[C@@H]2c2ccc(F)cc2)cn1` [Compound 37, (1S,2S)-2-(4-Fluoro-phenyl)-cyclopropanecarboxylic acid [(R)-1-(6-(1,1-d2)-ethoxy-pyridin-3-yl)-2-hydroxy-ethyl]-amide], 700 nM.
Regarding `[2H]C([2H])([2H])C([2H])([2H])Oc1ccc([C@H](CO)NC(=O)[C@H]2C[C@@H]2c2ccccc2)cn1` [Compound 38, (1S,2S)-2-Phenyl-cyclopropane carboxylic acid [(R)-1-(6-(1,1,2,2-d5)-ethoxy-pyridin-3-yl)-2-hydroxy-ethyl]-amide], in data set [1], the EC50 turned out to be 970 nM.
Still for that read-out and setting: the figure for `[2H]C([2H])([2H])COc1ccc([C@H](CO)NC(=O)[C@H]2C[C@@H]2c2cccc(F)c2)cn1` [Compound 39, (1S,2S)-2-(3-Fluoro-phenyl)-cyclopropanecarboxylic acid [(R)-1-(6-(2,2,2-d3)-ethoxy-pyridin-3-yl)-2-hydroxy-ethyl]-amide] is 720 nM.
The same measure, in the same setting: in the case of `O=C(N[C@@H](CO)c1ccc(OC2CCC2)nc1)[C@H]1C[C@@H]1c1ccccc1` [Compound 40, (1S,2S)-2-Phenyl-cyclopropanecarboxylic acid [(R)-1-(6-cyclobutoxy-pyridin-3-yl)-2-hydroxy-ethyl]-amide] it was 890 nM; in that of `O=C(N[C@@H](CO)c1ccc(OC2CCC2)nc1)[C@H]1C[C@@H]1c1cccc(F)c1` [Compound 41, (1S,2S)-2-(3-Fluoro-phenyl)-cyclopropanecarboxylic acid [(R)-1-(6-cyclobutoxy-pyridin-3-yl)-2-hydroxy-ethyl]-amide], 1600 nM; in that of `O=C(N[C@@H](CO)c1ccc(OC2CCC2)nc1)[C@H]1C[C@@H]1c1ccc(F)cc1` [Compound 42, (1S,2S)-2-(4-Fluoro-phenyl)-cyclopropanecarboxylic acid [(R)-1-(6-cyclobutoxy-pyridin-3-yl)-2-hydroxy-ethyl]-amide], 790 nM.
As to `O=C(N[C@@H](CO)c1ccc(O[C@@H]2CCOC2)nc1)[C@H]1C[C@@H]1c1ccccc1` [Compound 43, (1S,2S)-2-Phenyl-cyclopropanecarboxylic acid ((R)-2-hydroxy-1-{6-[(R)-(tetrahydro-furan-3-yl)oxy]-pyridin-3-yl}-ethyl)-amide], the half-maximal effective concentration (EC50) in data set [1] stood at 2900 nM.
For the molecule `O=C(N[C@@H](CO)c1ccc(O[C@H]2CCOC2)nc1)[C@H]1C[C@@H]1c1ccccc1` [Compound 44, (1S,2S)—N-[(1R)-2-hydroxy-1-[6-[(3S)-tetrahydrofuran-3-yl]oxy-3-pyridyl]ethyl]-2-phenyl-cyclopropanecarboxamide], the EC50 in data set [1] was 4600 nM.
The same measure, in the same setting: the figure for `CCOc1ccc([C@H](COC)NC(=O)[C@H]2C[C@@H]2c2ccccc2)cn1` [Compound 46, (1S,2S)-2-Phenyl-cyclopropanecarboxylic acid [(R)-1-(6-ethoxy-pyridin-3-yl)-2-methoxy-ethyl]-amide] is 460 nM; for `COC[C@H](NC(=O)[C@H]1C[C@@H]1c1ccccc1)c1ccc(O[C@@H]2CCOC2)nc1` [Compound 47, (1S,2S)—N-[(1R)-2-methoxy-1-[6-[(3R)-tetrahydrofuran-3-yl]oxy-3-pyridyl]-ethyl]-2-phenyl-cyclopropanecarboxamide] it is 1000 nM; for `COC[C@H](NC(=O)[C@H]1C[C@@H]1c1ccccc1)c1ccc(O[C@H]2CCOC2)nc1` [Compound 48, (1S,2S)—N-[(1R)-2-methoxy-1-[6-[(3S)-tetrahydrofuran-3-yl]oxy-3-pyridyl]ethyl]-2-phenyl-cyclopropanecarboxamide] it is 1700 nM.
On the same count and under the same terms, in the case of `COC[C@H](NC(=O)[C@H]1C[C@@H]1c1ccccc1)c1ccc(OC2CCOCC2)nc1` [Compound 49, (1S,2S)-2-Phenyl-cyclopropanecarboxylic acid {(R)-2-methoxy-1-[6-(tetrahydro-pyran-4-yloxy)-pyridin-3-yl]-ethyl}-amide] it was 1200 nM; in that of `CCOc1ccc([C@H](CO)NC(=O)[C@H]2C[C@@H]2c2ccccc2)nc1` [Compound 52, (1S,2S)-2-Phenyl-cyclopropanecarboxylic acid [(R)-1-(5-ethoxy-pyridin-2-yl)-2-hydroxy-ethyl]-amide], 2000 nM.
